Experiments:
Assay in all cases: KinaseProfiler Assay
Format in all cases: biochemical
PrKX = PrKX (Homo sapiens, UniProt P51817); details: read-out: PrKX, % of Control
FGFR2 = FGFR2 (Homo sapiens, UniProt P21802); details: read-out: FGFR2, % of Control
Ros = Ros (Homo sapiens, UniProt P08922); details: read-out: Ros, % of Control
IR = IR (Homo sapiens, UniProt P06213); details: read-out: IR, % of Control
PKBβ = PKBβ (Homo sapiens, UniProt P31751); details: read-out: PKBβ, % of Control
TSSK2 = biological target: T1, TSSK2 (Homo sapiens, UniProt Q96PF2); details: read-out: TSSK2, % of Control
T1 sequence (Q96PF2 1-358): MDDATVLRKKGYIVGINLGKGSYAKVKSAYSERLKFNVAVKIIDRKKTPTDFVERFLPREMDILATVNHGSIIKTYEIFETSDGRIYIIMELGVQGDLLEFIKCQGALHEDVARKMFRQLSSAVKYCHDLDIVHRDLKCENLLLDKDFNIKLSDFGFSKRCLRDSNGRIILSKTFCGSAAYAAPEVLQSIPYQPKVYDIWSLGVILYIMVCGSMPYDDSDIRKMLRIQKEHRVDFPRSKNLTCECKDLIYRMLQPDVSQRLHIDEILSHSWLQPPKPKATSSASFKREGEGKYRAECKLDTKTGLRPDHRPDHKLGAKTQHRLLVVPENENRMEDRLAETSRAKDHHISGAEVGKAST

Syk = Syk (Homo sapiens, UniProt P43405); details: read-out: Syk, % of Control
PKBα = PKBα (Homo sapiens, UniProt P31749); details: read-out: PKBα, % of Control
Chain of PKBα (P31749 whole entry): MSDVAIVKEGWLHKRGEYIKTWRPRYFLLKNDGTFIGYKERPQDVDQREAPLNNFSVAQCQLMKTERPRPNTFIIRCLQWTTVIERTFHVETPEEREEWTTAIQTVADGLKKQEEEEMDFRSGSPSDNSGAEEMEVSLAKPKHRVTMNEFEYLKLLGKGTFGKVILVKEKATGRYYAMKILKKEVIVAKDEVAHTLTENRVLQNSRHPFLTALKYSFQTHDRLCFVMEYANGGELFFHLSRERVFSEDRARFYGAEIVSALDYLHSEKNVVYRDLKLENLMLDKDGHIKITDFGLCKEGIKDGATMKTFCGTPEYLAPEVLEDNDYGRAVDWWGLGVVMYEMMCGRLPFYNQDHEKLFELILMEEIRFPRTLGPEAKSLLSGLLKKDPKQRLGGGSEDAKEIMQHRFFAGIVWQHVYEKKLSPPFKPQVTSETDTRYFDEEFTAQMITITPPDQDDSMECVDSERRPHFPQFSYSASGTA

Chain of FGFR2 (P21802 22-821): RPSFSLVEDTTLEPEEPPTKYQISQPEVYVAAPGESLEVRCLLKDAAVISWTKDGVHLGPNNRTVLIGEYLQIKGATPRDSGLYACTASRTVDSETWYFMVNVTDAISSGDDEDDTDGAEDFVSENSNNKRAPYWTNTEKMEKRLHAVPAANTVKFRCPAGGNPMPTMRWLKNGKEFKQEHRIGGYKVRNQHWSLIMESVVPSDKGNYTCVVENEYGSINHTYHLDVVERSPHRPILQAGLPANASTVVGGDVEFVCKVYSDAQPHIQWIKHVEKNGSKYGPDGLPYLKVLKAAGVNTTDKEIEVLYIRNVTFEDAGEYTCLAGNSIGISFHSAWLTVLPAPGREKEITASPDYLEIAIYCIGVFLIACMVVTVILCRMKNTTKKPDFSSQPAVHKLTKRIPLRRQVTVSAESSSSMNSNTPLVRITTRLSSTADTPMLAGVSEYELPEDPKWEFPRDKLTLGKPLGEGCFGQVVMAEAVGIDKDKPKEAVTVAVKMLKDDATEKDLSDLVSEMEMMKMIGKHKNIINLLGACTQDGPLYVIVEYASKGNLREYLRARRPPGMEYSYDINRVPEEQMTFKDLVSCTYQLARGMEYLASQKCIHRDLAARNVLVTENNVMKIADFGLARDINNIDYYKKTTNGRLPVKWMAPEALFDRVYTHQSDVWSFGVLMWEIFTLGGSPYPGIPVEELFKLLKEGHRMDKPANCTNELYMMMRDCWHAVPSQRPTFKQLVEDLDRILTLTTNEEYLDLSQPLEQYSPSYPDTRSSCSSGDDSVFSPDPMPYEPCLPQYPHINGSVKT
Chain of Ros (P08922 28-2347): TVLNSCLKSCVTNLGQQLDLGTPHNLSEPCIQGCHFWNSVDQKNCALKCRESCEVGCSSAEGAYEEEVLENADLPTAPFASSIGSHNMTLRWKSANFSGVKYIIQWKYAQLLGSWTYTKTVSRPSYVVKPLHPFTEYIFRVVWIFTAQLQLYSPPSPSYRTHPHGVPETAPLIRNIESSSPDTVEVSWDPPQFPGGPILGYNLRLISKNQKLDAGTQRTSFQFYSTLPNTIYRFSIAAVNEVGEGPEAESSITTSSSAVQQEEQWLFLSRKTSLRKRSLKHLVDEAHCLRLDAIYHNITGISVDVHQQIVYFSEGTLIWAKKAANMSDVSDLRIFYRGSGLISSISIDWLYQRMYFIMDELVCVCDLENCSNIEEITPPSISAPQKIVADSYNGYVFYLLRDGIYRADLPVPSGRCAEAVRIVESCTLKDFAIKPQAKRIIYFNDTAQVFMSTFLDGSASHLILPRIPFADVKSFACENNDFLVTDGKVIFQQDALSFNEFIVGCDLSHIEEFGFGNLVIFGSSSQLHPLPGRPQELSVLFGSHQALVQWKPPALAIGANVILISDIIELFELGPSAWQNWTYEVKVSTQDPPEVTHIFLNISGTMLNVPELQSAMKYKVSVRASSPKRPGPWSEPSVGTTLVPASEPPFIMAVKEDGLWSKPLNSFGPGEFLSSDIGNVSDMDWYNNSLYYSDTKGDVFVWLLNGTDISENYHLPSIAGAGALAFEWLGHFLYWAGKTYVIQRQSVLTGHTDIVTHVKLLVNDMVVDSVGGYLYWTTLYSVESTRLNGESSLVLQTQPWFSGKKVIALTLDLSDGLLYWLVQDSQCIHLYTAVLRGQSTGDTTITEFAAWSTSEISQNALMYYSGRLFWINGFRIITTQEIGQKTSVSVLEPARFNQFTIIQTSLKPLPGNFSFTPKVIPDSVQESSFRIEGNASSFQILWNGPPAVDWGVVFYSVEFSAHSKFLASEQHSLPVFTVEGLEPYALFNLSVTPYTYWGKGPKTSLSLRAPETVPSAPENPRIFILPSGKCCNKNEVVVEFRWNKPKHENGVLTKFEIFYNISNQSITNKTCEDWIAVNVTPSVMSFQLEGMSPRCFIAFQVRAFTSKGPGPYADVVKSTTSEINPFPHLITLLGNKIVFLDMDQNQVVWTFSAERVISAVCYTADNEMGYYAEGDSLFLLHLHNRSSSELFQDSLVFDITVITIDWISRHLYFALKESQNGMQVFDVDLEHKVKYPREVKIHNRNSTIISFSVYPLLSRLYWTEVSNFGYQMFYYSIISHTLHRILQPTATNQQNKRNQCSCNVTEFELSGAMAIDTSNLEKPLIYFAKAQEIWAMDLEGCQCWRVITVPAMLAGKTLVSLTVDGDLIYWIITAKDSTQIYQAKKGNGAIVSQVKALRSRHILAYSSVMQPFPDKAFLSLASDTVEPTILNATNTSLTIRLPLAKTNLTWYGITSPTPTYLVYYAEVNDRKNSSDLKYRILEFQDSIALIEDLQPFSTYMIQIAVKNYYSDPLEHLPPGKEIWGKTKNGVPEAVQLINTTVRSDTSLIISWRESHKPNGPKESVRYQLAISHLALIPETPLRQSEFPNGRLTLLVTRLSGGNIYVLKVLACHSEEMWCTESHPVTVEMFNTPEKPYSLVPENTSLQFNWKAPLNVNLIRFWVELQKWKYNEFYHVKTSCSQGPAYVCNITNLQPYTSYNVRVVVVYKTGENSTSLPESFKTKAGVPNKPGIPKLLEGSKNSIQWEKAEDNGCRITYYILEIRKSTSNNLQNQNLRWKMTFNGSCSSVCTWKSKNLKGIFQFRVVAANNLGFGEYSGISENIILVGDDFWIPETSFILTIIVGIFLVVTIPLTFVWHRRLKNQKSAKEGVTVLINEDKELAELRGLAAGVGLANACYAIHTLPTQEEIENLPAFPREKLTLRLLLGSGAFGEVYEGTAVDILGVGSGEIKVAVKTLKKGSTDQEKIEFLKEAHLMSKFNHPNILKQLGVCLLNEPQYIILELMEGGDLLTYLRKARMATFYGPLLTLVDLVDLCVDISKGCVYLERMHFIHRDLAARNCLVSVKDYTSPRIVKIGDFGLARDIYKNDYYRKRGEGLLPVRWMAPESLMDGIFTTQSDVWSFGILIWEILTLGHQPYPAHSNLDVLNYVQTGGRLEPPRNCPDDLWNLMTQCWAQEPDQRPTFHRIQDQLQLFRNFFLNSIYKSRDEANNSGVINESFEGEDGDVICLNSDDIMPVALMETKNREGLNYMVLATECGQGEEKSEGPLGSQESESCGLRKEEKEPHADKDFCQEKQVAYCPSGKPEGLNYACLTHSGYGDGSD
Chain of PKBβ (P31751 whole entry): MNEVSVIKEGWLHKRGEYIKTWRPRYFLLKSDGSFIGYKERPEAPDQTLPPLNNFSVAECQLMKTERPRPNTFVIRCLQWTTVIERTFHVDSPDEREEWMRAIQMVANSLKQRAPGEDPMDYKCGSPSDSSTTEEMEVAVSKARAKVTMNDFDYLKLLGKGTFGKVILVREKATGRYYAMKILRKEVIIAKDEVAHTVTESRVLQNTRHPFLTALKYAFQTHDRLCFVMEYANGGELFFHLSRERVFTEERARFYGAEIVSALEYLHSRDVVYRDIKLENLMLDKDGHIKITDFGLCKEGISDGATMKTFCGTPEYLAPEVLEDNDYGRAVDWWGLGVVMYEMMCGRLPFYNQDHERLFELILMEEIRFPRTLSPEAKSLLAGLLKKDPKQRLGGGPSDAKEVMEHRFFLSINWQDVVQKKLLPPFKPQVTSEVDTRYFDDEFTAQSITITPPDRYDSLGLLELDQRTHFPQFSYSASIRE
Chain of PrKX (P51817 whole entry): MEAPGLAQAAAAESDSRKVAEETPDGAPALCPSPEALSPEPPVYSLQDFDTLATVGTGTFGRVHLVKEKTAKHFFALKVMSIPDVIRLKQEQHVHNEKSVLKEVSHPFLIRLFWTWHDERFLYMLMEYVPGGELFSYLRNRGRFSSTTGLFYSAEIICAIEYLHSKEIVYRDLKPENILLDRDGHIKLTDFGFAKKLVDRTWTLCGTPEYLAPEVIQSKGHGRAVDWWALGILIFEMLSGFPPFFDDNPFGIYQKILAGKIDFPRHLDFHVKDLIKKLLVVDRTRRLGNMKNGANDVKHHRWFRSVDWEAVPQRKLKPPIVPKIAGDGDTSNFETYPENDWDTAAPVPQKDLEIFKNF

## COc1cc(O)c(CC=C(C)C)c(O)c1C(=O)/C=C/c1ccc(O)cc1 [Xanthohumol, xanthohumol]
PrKX; 1 ug/ml
  remaining activity at 1 µg/mL: 92%
PrKX; 50 ug/ml
  remaining activity at 50 µg/mL: 3%
FGFR2; 1 ug/ml
  remaining activity at 1 µg/mL: 116%
FGFR2; 5 ug/ml
  remaining activity at 5 µg/mL: 89%
FGFR2; 25 ug/ml
  remaining activity at 25 µg/mL: 36%
Ros; 1 ug/ml
  remaining activity at 1 µg/mL: 101%
Ros; 5 ug/ml
  remaining activity at 5 µg/mL: 99%
Ros; 25 ug/ml
  remaining activity at 25 µg/mL: 85%
Ros; 50 ug/ml
  remaining activity at 50 µg/mL: 94%
IR; 1 ug/ml
  remaining activity at 1 µg/mL: 120%
IR; 5 ug/ml
  remaining activity at 5 µg/mL: 108%
PKBβ; 1 ug/ml
  remaining activity at 1 µg/mL: 146%
PKBβ; 5 ug/ml
  remaining activity at 5 µg/mL: 102%
PKBβ; 25 ug/ml
  remaining activity at 25 µg/mL: 1%
PKBβ; 50 ug/ml
  remaining activity at 50 µg/mL: 8%
TSSK2; 1 ug/ml
  remaining activity at 1 µg/mL: 102%
TSSK2; 5 ug/ml
  remaining activity at 5 µg/mL: 95%
TSSK2; 25 ug/ml
  remaining activity at 25 µg/mL: 61%
TSSK2; 50 ug/ml
  remaining activity at 50 µg/mL: 48%
Syk; 1 ug/ml
  remaining activity at 1 µg/mL: 95%
Syk; 5 ug/ml
  remaining activity at 5 µg/mL: 60%
Syk; 25 ug/ml
  remaining activity at 25 µg/mL: 32%
Syk; 50 ug/ml
  remaining activity at 50 µg/mL: 17%
PKBα; 1 ug/ml
  remaining activity at 1 µg/mL: 102%
PKBα; 25 ug/ml
  remaining activity at 25 µg/mL: 18%
PKBα; 50 ug/ml
  remaining activity at 50 µg/mL: 5%

Source: US20080051466A1, “Isoalpha acid based protein kinase modulation cancer treatment” (Metaproteomics, LLC, priority 2006, published 2008)
